Values of other authors, collected in US20100047788A1, “METHOD AND KIT FOR DIAGNOSIS AND MONITORING OF THE TREATMENT OF CHRONIC TRIPANOSSOMIASIS AND CHAGAS DISEASE” (FUNDACÃO UNIVERSIDADE DE BRASÍLIA CDTCAMPUS UNIVER, priority 2006, published 2010).

Tested on: LINE-1
Details: background statement; taken as indication of non occurrence of the kDNA integration

Q: Which “effect on retrotransposition of LINE-1” value does the source give for `Cc1cn([C@H]2C[C@H](N=[N+]=[N-])[C@@H](CO)O2)c(=O)[nH]c1=O` [AZT] here?
A: Its value is “prevented the retrotransposition of LINE-1”.
